{"source": "ChEMBL document CHEMBL6092206", "about": "“Discovery and Characterization of BAY-184: A New Potent and Selective Acylsulfonamide-Benzofuran In Vivo-Active KAT6AB Inhibitor” (J Med Chem, 2024)", "key": {"[1]": {"test": "Stability of compound in HCL buffer at pH 1 measured for 24 hrs by HPLC analysis", "format": "physicochemical", "conditions": "pH 1, 24 h"}, "[2]": {"test": "Antiproliferative activity against human KPL-1 cells assessed as inhibition of cell growth incubated for 6 days by alamar blue staining based assay relative to control", "format": "functional", "conditions": "time 6 day"}, "[3]": {"tested_on": "HCC1428", "test": "Antiproliferative activity against human HCC1428 cells assessed as inhibition of cell growth incubated for 6 days by alamar blue staining based assay relative to control", "format": "functional", "conditions": "time 6 day"}, "[4]": {"tested_on": "MFM-223", "test": "Antiproliferative activity against human MFM-223 cells assessed as inhibition of cell growth incubated for 6 days by alamar blue staining based assay relative to control", "format": "functional", "conditions": "time 6 day"}, "[5]": {"test": "Antiproliferative activity against human HCC1500 cells assessed as inhibition of cell growth incubated for 6 days by alamar blue staining based assay relative to control", "format": "functional", "conditions": "time 6 day"}, "[6]": {"tested_on": "MDA-MB-436", "test": "Antiproliferative activity against human MDA-MB-436 cells assessed as inhibition of cell growth incubated for 6 days by alamar blue staining based assay relative to control", "format": "functional", "conditions": "time 6 day"}, "[7]": {"tested_on": "MDA-MB-231", "test": "Antiproliferative activity against human MDA-MB-231 cells assessed as inhibition of cell growth incubated for 6 days by alamar blue staining based assay relative to control", "format": "functional", "conditions": "time 6 day"}, "[8]": {"tested_on": "BT-549", "test": "Antiproliferative activity against human BT-549 cells assessed as inhibition of cell growth incubated for 6 days by alamar blue staining based assay relative to control", "format": "functional", "conditions": "time 6 day"}, "[9]": {"tested_on": "HCC1806", "test": "Antiproliferative activity against human HCC1806 cells assessed as inhibition of cell growth incubated for 6 days by alamar blue staining based assay relative to control", "format": "functional", "conditions": "time 6 day"}, "[10]": {"test": "Metabolic stability in human liver microsome assessed as clearance measured for 2 to 60 mins by LC-MS/MS analysis", "format": "ADME", "conditions": "microsomes, time 2-60 min"}, "[11]": {"test": "Metabolic stability in rat liver microsome assessed as clearance measured for 2 to 60 mins by LC-MS/MS analysis", "format": "ADME", "conditions": "microsomes, time 2-60 min"}, "[12]": {"test": "Metabolic stability in mouse liver microsome assessed as clearance measured for 2 to 60 mins by LC-MS/MS analysis", "format": "ADME", "conditions": "microsomes, time 2-60 min"}, "[13]": {"test": "Metabolic stability in human hepatocyte assessed as clearance measured for 2 to 90 mins by LC-MS/MS analysis", "format": "ADME, cell-based", "conditions": "hepatocytes, time 2-90 min"}, "[14]": {"test": "Metabolic stability in rat hepatocyte assessed as clearance measured for 2 to 90 mins by LC-MS/MS analysis", "format": "ADME, cell-based", "conditions": "hepatocytes, time 2-90 min"}, "[15]": {"test": "Metabolic stability in mouse hepatocyte assessed as clearance measured for 2 to 90 mins by LC-MS/MS analysis", "format": "ADME, cell-based", "conditions": "hepatocytes, time 2-90 min"}, "[16]": {"test": "Metabolic stability in dog hepatocyte assessed as clearance measured for 2 to 90 mins by LC-MS/MS analysis", "format": "ADME, cell-based, Canis lupus familiaris", "conditions": "hepatocytes, time 2-90 min"}, "[17]": {"test": "Metabolic stability in human liver microsome assessed as maximum bioavailability of the drug measured for 2 to 60 mins by LC-MS/MS analysis", "format": "ADME", "conditions": "liver microsomes, time 2-60 min, read-out: Fmax"}, "[18]": {"test": "Metabolic stability in rat liver microsome assessed as maximum bioavailability of the drug measured for 2 to 60 mins by LC-MS/MS analysis", "format": "ADME", "conditions": "liver microsomes, time 2-60 min, read-out: Fmax"}, "[19]": {"test": "Metabolic stability in mouse liver microsome assessed as maximum bioavailability of the drug measured for 2 to 60 mins by LC-MS/MS analysis", "format": "ADME", "conditions": "liver microsomes, time 2-60 min, read-out: Fmax"}, "[20]": {"test": "Metabolic stability in human hepatocyte assessed as maximum bioavailability of the drug measured for 2 to 90 mins by LC-MS/MS analysis", "format": "ADME", "conditions": "hepatocytes, time 2-90 min, read-out: Fmax"}, "[21]": {"test": "Metabolic stability in mouse hepatocyte assessed as maximum bioavailability of the drug measured for 2 to 90 mins by LC-MS/MS analysis", "format": "ADME", "conditions": "hepatocytes, time 2-90 min, read-out: Fmax"}, "[22]": {"test": "Metabolic stability in dog hepatocyte assessed as maximum bioavailability of the drug measured for 2 to 90 mins by LC-MS/MS analysis", "format": "ADME, Canis lupus familiaris", "conditions": "hepatocytes, time 2-90 min, read-out: Fmax"}, "[23]": {"test": "Clearance in male Wistar rat at 0.5 mg/kg, iv or 1 mg/kg, po measured upto 24 hrs by LC-MS/S analysis", "format": "ADME, organism-based", "conditions": "in vivo"}, "[24]": {"test": "Clearance in mouse at 0.5 mg/kg, iv", "format": "ADME, organism-based", "conditions": "in vivo"}, "[25]": {"test": "Volume of distribution at steady state in male Wistar rat at 0.5 mg/kg, iv or 1 mg/kg, po measured upto 24 hrs by LC-MS/S analysis", "format": "ADME, organism-based", "conditions": "in vivo"}, "[26]": {"test": "Half life in male Wistar rat at 0.5 mg/kg, iv measured upto 24 hrs by LC-MS/S analysis", "format": "ADME, organism-based", "conditions": "in vivo"}, "[27]": {"test": "AUC in male Wistar rat at 0.5 mg/kg, iv measured upto 24 hrs by LC-MS/S analysis", "format": "ADME, organism-based", "conditions": "in vivo"}, "[28]": {"test": "AUC in mouse at 0.5 mg/kg, iv", "format": "ADME, organism-based", "conditions": "in vivo"}, "[29]": {"test": "AUC in male Wistar rat at 1 mg/kg, po measured upto 24 hrs by LC-MS/S analysis", "format": "ADME, organism-based", "conditions": "in vivo"}, "[30]": {"test": "Plasma protein binding in mouse assessed as unbound fraction equilibrium dialysis based LC-MS/MS analysis", "format": "ADME, cell-free"}, "[31]": {"test": "Plasma protein binding in human assessed as unbound fraction equilibrium dialysis based LC-MS/MS analysis", "format": "ADME, cell-free"}, "[32]": {"tested_on": "ZR-75-1", "test": "Antitumor activity against human ZR-75-1 cells xenografted in po dosed female estradiol-primed NMRI mouse assessed as inhibition of tumor growth administered twice daily measured at 2 to 3 days", "format": "functional, organism-based", "conditions": "time 2-3 day"}, "[33]": {"test": "Toxicity in female estradiol-primed NMRI mouse assessed as tolerability at 50 to 10 mg/kg, po administered twice daily measured at 2 to 3 days", "format": "organism-based", "conditions": "in vivo, dose lower 50 mg/kg, time lower 2 day, dose upper 10 mg/kg, time upper 3 day"}, "[34]": {"tested_on": "ZR-75-1", "test": "Antitumor activity against human ZR-75-1 cells xenografted in female estradiol-primed NMRI mouse assessed as reduction in H3K23 acetylation level in tumor at 100 mg/kg, po administered twice daily measured after 24 hrs by immunohistochemical analysis", "format": "functional, organism-based"}, "[35]": {"test": "Mutagenicity in Salmonella typhimurium TA100 by Ames test", "format": "toxicity", "conditions": "salmonella enterica subsp. enterica serovar typhimurium"}, "[36]": {"test": "Mutagenicity in Salmonella typhimurium TA1537 by Ames test", "format": "toxicity", "conditions": "salmonella enterica subsp. enterica serovar typhimurium"}, "[37]": {"test": "Mutagenicity in Salmonella typhimurium TA98 by Ames test", "format": "toxicity", "conditions": "salmonella enterica subsp. enterica serovar typhimurium"}, "[38]": {"test": "Mutagenicity in Escherichia coli WP2 uvrA by Ames test", "format": "toxicity"}, "[39]": {"test": "Mutagenicity in Salmonella typhimurium TA98 in presence of S9 fraction by Ames test", "format": "toxicity, subcellular", "conditions": "salmonella enterica subsp. enterica serovar typhimurium"}, "[40]": {"biological_target": "Histone acetyltransferase KAT5 (Homo sapiens, UniProt Q92993)", "sequence (Q92993 whole entry)": "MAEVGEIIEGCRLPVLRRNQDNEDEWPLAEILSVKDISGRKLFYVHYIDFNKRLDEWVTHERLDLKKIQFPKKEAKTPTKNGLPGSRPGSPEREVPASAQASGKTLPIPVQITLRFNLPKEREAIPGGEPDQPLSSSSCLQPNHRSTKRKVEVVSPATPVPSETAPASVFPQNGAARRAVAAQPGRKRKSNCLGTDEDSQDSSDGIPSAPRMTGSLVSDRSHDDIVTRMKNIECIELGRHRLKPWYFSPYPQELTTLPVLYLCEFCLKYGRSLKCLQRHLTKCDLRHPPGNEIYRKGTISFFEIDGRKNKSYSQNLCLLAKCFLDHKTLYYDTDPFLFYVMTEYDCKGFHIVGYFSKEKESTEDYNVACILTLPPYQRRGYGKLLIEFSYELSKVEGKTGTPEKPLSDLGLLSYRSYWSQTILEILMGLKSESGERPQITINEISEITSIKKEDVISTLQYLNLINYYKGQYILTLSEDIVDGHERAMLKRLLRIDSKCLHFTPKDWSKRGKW", "test": "Inhibition of full length N-terminal GST-tagged human recombinant KAT5 expressed in Sf9 insect cells using H4-derived peptide as substrate incubated for 30 mins in presence of AcCoA by TR-FRET assay"}}, "note": "Activity calls are given as the source filed them. The calls are words filed in the database; no cut-off is given here."}
{"smiles": "CN(C)c1ccc2cc(C(=O)NS(=O)(=O)c3ccccc3-c3ccccc3)oc2c1", "values": [{"measurement": "Stability", "setting": "[1]", "result": "Stable"}, {"measurement": "inhibition (INH)", "setting": "[2]", "result": 30, "unit": "%"}, {"measurement": "inhibition (INH)", "setting": "[3]", "result": 51, "unit": "%"}, {"measurement": "inhibition (INH)", "setting": "[4]", "result": 61, "unit": "%"}, {"measurement": "inhibition (INH)", "setting": "[5]", "result": 49, "unit": "%"}, {"measurement": "inhibition (INH)", "setting": "[6]", "result": 0, "unit": "%"}, {"measurement": "inhibition (INH)", "setting": "[7]", "result": 0, "unit": "%"}, {"measurement": "inhibition (INH)", "setting": "[8]", "result": 0, "unit": "%"}, {"measurement": "inhibition (INH)", "setting": "[9]", "result": 0, "unit": "%"}, {"measurement": "CLH", "setting": "[10]", "result": 0.77, "unit": "L/h/kg"}, {"measurement": "CLH", "setting": "[11]", "result": 3, "unit": "L/h/kg"}, {"measurement": "CLH", "setting": "[12]", "result": 3.8, "unit": "L/h/kg"}, {"measurement": "CLH", "setting": "[13]", "result": 0.99, "unit": "L/h/kg"}, {"measurement": "CLH", "setting": "[14]", "result": 2.5, "unit": "L/h/kg"}, {"measurement": "CLH", "setting": "[15]", "result": 3.6, "unit": "L/h/kg"}, {"measurement": "CLH", "setting": "[16]", "result": 0.99, "unit": "L/h/kg"}, {"measurement": "Fh", "setting": "[17]", "result": 41, "unit": "%"}, {"measurement": "Fh", "setting": "[18]", "result": 28, "unit": "%"}, {"measurement": "Fh", "setting": "[19]", "result": 29, "unit": "%"}, {"measurement": "Fh", "setting": "[20]", "result": 25, "unit": "%"}, {"measurement": "Fh", "setting": "[21]", "result": 33, "unit": "%"}, {"measurement": "Fh", "setting": "[22]", "result": 53, "unit": "%"}, {"measurement": "clearance", "setting": "[23]", "result": 0.34, "unit": "L/h/kg"}, {"measurement": "clearance", "setting": "[24]", "result": 0.56, "unit": "L/h/kg"}, {"measurement": "Vdss", "setting": "[25]", "result": 0.13, "unit": "L/kg"}, {"measurement": "t1/2", "setting": "[26]", "result": 56.4, "unit": "min"}, {"measurement": "AUC", "setting": "[27]", "result": 5.5, "unit": "kg·h/L"}, {"measurement": "AUC", "setting": "[28]", "result": 2.5, "unit": "kg·h/L"}, {"measurement": "AUC", "setting": "[29]", "result": 3.3, "unit": "kg·h/L"}, {"measurement": "Fu", "setting": "[30]", "result": 0.31, "unit": "%"}, {"measurement": "Fu", "setting": "[31]", "result": 0.042, "unit": "%"}, {"measurement": "Activity", "setting": "[32]", "result": "Dose-dependent-effect"}, {"measurement": "Activity", "setting": "[33]", "result": "Non-toxic"}, {"measurement": "Activity", "setting": "[34]", "result": "Active"}, {"measurement": "Activity", "setting": "[35]", "result": "Non-toxic"}, {"measurement": "Activity", "setting": "[36]", "result": "Non-toxic"}, {"measurement": "Activity", "setting": "[37]", "result": "Non-toxic"}, {"measurement": "Activity", "setting": "[38]", "result": "Non-toxic"}, {"measurement": "Activity", "setting": "[39]", "result": "Non-toxic"}, {"measurement": "IC50", "setting": "[40]", "result": 14.3, "unit": "µM"}]}
